Results from ChEMBL document CHEMBL1201862, “PubChem BioAssay data set” (2004).
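The compound was tested at five concentrations on cells cultured in 96-well plates, with a 48-hour exposure period. GI50 is the concentration that inhibits growth by half.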 Calls of active or inactive are those of the source. No stated cut-off is given here; in the data, active = GI50 up to about 1.1 µM and inactive = higher.

What was measured:
Assay in all cases: NCI-60 cell line screen, 48 h
[1] = test system: COLO 205
[2] = test system: OVCAR-8
[3] = test system: SF-539
[4] = test system: ACHN
[5] = test system: SNB-19
[6] = test system: MOLT-4
[7] = test system: SN12C
[8] = test system: IGROV-1
[9] = test system: CAKI-1
[10] = test system: RPMI-8226
[11] = test system: UACC-62
[12] = test system: A498
[13] = test system: NCI-H23
[14] = test system: UO-31
[15] = test system: EKVX
[16] = test system: HCC 2998

| SMILES | GI50 [1] | GI50 [2] | GI50 [3] | GI50 [4] | GI50 [5] | GI50 [6] | GI50 [7] | GI50 [8] | GI50 [9] | GI50 [10] | GI50 [11] | GI50 [12] | GI50 [13] | GI50 [14] | GI50 [15] | GI50 [16] |
| --- | --- | --- | --- | --- | --- | --- | --- | --- | --- | --- | --- | --- | --- | --- | --- | --- |
| CSC(=S)N/N=C/c1nccc2ccccc12 | 0.138 µM (active) | 0.454 µM (active) | 1.08 µM (active) | 1.23 µM (inactive) | 2.29 µM (inactive) | 0.204 µM (active) | 1.6 µM (inactive) | 1.91 µM (inactive) | 2.34 µM (inactive) | 0.522 µM (active) | 1.29 µM (inactive) | 2.45 µM (inactive) | 1.42 µM (inactive) | 1.94 µM (inactive) | 2.52 µM (inactive) | 1.3 µM (inactive) |
| CCOc1ccc(/N=C\c2cc(OC)c(OC)c(OC)c2)cc1 | – | > 100 µM (inactive) | > 100 µM (inactive) | > 100 µM (inactive) | > 100 µM (inactive) | > 100 µM (inactive) | > 100 µM (inactive) | > 100 µM (inactive) | > 100 µM (inactive) | 18.2 µM (inactive) | > 100 µM (inactive) | > 100 µM (inactive) | > 100 µM (inactive) | > 100 µM (inactive) | > 100 µM (inactive) | – |
| C[C@]12CCC3[C@@H](CC[C@@H]4c5nonc5CC[C@]34C)C1CCC(=O)N2 (stereo not given in full) | > 100 µM (inactive) | > 100 µM (inactive) | > 100 µM (inactive) | > 100 µM (inactive) | > 100 µM (inactive) | > 100 µM (inactive) | > 100 µM (inactive) | > 100 µM (inactive) | > 100 µM (inactive) | 67.9 µM (inactive) | > 100 µM (inactive) | > 100 µM (inactive) | > 100 µM (inactive) | > 100 µM (inactive) | 68.9 µM (inactive) | – |
| [O-][S+]1Nc2cccc(C(F)(F)F)c2S1 (stereo not given) | 19.8 µM (inactive) | 54.8 µM (inactive) | 58.6 µM (inactive) | 37.2 µM (inactive) | 67.1 µM (inactive) | 21 µM (inactive) | 35.6 µM (inactive) | 38.5 µM (inactive) | 30.5 µM (inactive) | 29 µM (inactive) | 27.7 µM (inactive) | 22.9 µM (inactive) | 41.8 µM (inactive) | 19.1 µM (inactive) | 38.8 µM (inactive) | 26.4 µM (inactive) |
| O=c1nc2sc3ccc4ccccc4c3n2nc1-c1ccccc1 | 56.2 µM (inactive) | 18.9 µM (inactive) | 14.8 µM (inactive) | 27.8 µM (inactive) | 29.4 µM (inactive) | > 100 µM (inactive) | 27.2 µM (inactive) | 25.4 µM (inactive) | 31.1 µM (inactive) | – | 64.4 µM (inactive) | – | 27.2 µM (inactive) | 22.3 µM (inactive) | 41.8 µM (inactive) | > 100 µM (inactive) |
| O=C(N/C(=C\c1ccc(F)cc1)c1nc2ccccc2[nH]1)c1ccccc1 | > 100 µM (inactive) | > 100 µM (inactive) | > 100 µM (inactive) | > 100 µM (inactive) | > 100 µM (inactive) | > 100 µM (inactive) | > 100 µM (inactive) | > 100 µM (inactive) | > 100 µM (inactive) | > 100 µM (inactive) | > 100 µM (inactive) | > 100 µM (inactive) | > 100 µM (inactive) | > 100 µM (inactive) | > 100 µM (inactive) | – |
| COc1ccc(C(=O)C(C(=O)C(=O)Nc2nccs2)c2ccc(OC)cc2)cc1 (stereo not given) | > 100 µM (inactive) | > 100 µM (inactive) | > 100 µM (inactive) | > 100 µM (inactive) | > 100 µM (inactive) | > 100 µM (inactive) | > 100 µM (inactive) | > 100 µM (inactive) | > 100 µM (inactive) | > 100 µM (inactive) | > 100 µM (inactive) | > 100 µM (inactive) | > 100 µM (inactive) | > 100 µM (inactive) | – | – |
| CC1=C(C(=O)Nc2cc(F)c(F)cc2F)C(c2ccc3c(c2)OCO3)C(C(=O)Nc2cc(F)c(F)cc2F)=C(C)N1 | 21.8 µM (inactive) | 31 µM (inactive) | 27.5 µM (inactive) | 19.1 µM (inactive) | 38.4 µM (inactive) | 14.2 µM (inactive) | 18.7 µM (inactive) | 28.7 µM (inactive) | 11.8 µM (inactive) | 16 µM (inactive) | – | 21 µM (inactive) | 19.8 µM (inactive) | 12.9 µM (inactive) | 18 µM (inactive) | 19.2 µM (inactive) |
| O=C(c1ccc(Cl)cc1)c1ccc(OCCCCCCCCCCOc2ccc(C(=O)c3ccc(Cl)cc3)cc2)cc1 | > 100 µM (inactive) | > 100 µM (inactive) | – | > 100 µM (inactive) | > 100 µM (inactive) | > 100 µM (inactive) | > 100 µM (inactive) | > 100 µM (inactive) | > 100 µM (inactive) | > 100 µM (inactive) | > 100 µM (inactive) | > 100 µM (inactive) | > 100 µM (inactive) | > 100 µM (inactive) | > 100 µM (inactive) | > 100 µM (inactive) |
| C[C@@H]1CC(=O)C2CCCC1C2=O (stereo not given in full) | 45.7 µM (inactive) | > 100 µM (inactive) | > 100 µM (inactive) | > 100 µM (inactive) | > 100 µM (inactive) | > 100 µM (inactive) | > 100 µM (inactive) | > 100 µM (inactive) | > 100 µM (inactive) | > 100 µM (inactive) | > 100 µM (inactive) | > 100 µM (inactive) | – | > 100 µM (inactive) | > 100 µM (inactive) | > 100 µM (inactive) |
| COc1cc2cc(OC)c3cc4c(cc3c2c(OC)c1OC)OCO4 | 19.6 µM (inactive) | > 59.4 µM (inactive) | 31.6 µM (inactive) | 52.5 µM (inactive) | > 100 µM (inactive) | 22.8 µM (inactive) | > 69.3 µM (inactive) | > 66.8 µM (inactive) | 33 µM (inactive) | 14.7 µM (inactive) | 19.3 µM (inactive) | > 45.5 µM (inactive) | 39.8 µM (inactive) | 29.4 µM (inactive) | 50.6 µM (inactive) | 11 µM (inactive) |
| COc1cc(C(=O)C/C(CCC(=O)Nc2ccccc2[N+](=O)[O-])=N\NC(N)=O)ccc1O | > 100 µM (inactive) | > 100 µM (inactive) | > 100 µM (inactive) | > 100 µM (inactive) | > 100 µM (inactive) | > 100 µM (inactive) | > 100 µM (inactive) | > 100 µM (inactive) | > 100 µM (inactive) | > 100 µM (inactive) | > 100 µM (inactive) | > 100 µM (inactive) | > 100 µM (inactive) | > 100 µM (inactive) | 32.9 µM (inactive) | > 100 µM (inactive) |
| COc1c(C(=O)O)oc2c(OC)cccc12 | > 100 µM (inactive) | > 100 µM (inactive) | > 100 µM (inactive) | > 100 µM (inactive) | > 100 µM (inactive) | > 100 µM (inactive) | > 100 µM (inactive) | > 100 µM (inactive) | – | > 100 µM (inactive) | > 100 µM (inactive) | > 100 µM (inactive) | > 100 µM (inactive) | > 100 µM (inactive) | > 100 µM (inactive) | > 100 µM (inactive) |
| CC(=O)Nc1ccc(-c2nnc(SCC(=O)Nc3ccccc3[N+](=O)[O-])o2)cc1 | > 100 µM (inactive) | > 100 µM (inactive) | 34.6 µM (inactive) | > 100 µM (inactive) | – | 71.4 µM (inactive) | > 100 µM (inactive) | > 100 µM (inactive) | > 100 µM (inactive) | > 100 µM (inactive) | > 100 µM (inactive) | – | > 100 µM (inactive) | 81.3 µM (inactive) | – | – |
| C1CCOC2(CCC3(CC2)OCCCCO3)OC1 | > 100 µM (inactive) | > 100 µM (inactive) | > 100 µM (inactive) | > 100 µM (inactive) | > 100 µM (inactive) | > 100 µM (inactive) | > 100 µM (inactive) | > 100 µM (inactive) | > 100 µM (inactive) | > 100 µM (inactive) | > 100 µM (inactive) | > 100 µM (inactive) | – | > 100 µM (inactive) | – | > 100 µM (inactive) |
| CCCC(O)[C@@H](O)c1ccc2c(c1O)C(=O)c1c(OC)cccc1C2=O (stereo not given in full) | 20.9 µM (inactive) | 30.1 µM (inactive) | 24.2 µM (inactive) | 34.4 µM (inactive) | 80.4 µM (inactive) | 21.1 µM (inactive) | 40.4 µM (inactive) | 30.7 µM (inactive) | 27.8 µM (inactive) | 5.73 µM (inactive) | 25.9 µM (inactive) | 34.5 µM (inactive) | 36.6 µM (inactive) | 28.2 µM (inactive) | 55.1 µM (inactive) | 19.4 µM (inactive) |
| CCCCCCCCCCCCCCCCCC(=O)NCC(COP(=O)([O-])OCC[N+](C)(C)C)OC (stereo not given) | 1.48 µM (inactive) | 10.9 µM (inactive) | 17.6 µM (inactive) | 10.8 µM (inactive) | 1.91 µM (inactive) | 1.76 µM (inactive) | 3.85 µM (inactive) | 1.91 µM (inactive) | 2.44 µM (inactive) | 1.63 µM (inactive) | 4.53 µM (inactive) | 3.03 µM (inactive) | 14.3 µM (inactive) | 16.9 µM (inactive) | 16.3 µM (inactive) | 1.05 µM (active) |
| COc1ccc(C2Cc3cc(OC)c(OC)c(OC)c3C2)cc1 (stereo not given) | 66.7 µM (inactive) | 48.5 µM (inactive) | 64.7 µM (inactive) | 39.1 µM (inactive) | 55.6 µM (inactive) | 22.4 µM (inactive) | 52.2 µM (inactive) | > 100 µM (inactive) | 36.9 µM (inactive) | 18.8 µM (inactive) | 66.1 µM (inactive) | 28.6 µM (inactive) | 9.59 µM (inactive) | 21.3 µM (inactive) | 29 µM (inactive) | 49.9 µM (inactive) |
